Values joined by “and” are separate entries in the source; they are usually repeats but may differ in a detail not shown here. Equal values may be shown once. Read-outs that look alike come from different tables or passages of the source.
Columns and labels:
[1] = ABTS assay; format: biochemical; details: for radical scavenger / antioxidant activity, ABTS: compound 100 µM; for EC50 / TEAC, ABTS: mean ± SEM of three independent experiments
Experimental: The ABTS assay was performed according to the methods reported in literature. Briefly, 7 mM of ABTS was mixed with 2.45 mM of K2S2O8 solution, ratio 1:1, in 10 mM phosphate buffer (pH 7.4). The mixture was incubated in a dark box at r.t. for 12 h, then the stock solution was diluted until the absorbance was 0.70 ± 0.02 at 734 nm.
In a 96-well plate, 190 µL ABTS working solution and 10 µL sample solution (compounds 2a–c, 3a–c at concentration of 100 μM) were mixed and the absorbance was measured (734 nm) using a SPECTROstarNano (220–1000 nm) UV–Vis spectrophotometer, Ortenberg, Germany. Then, for compounds 2a–c the EC50 was calculated and the values were expressed in TEAC equivalents. Each concentration was tested in triplicate and the EC50 was reported as the mean ± SEM of three independent experiments.

[2] = target: T1, Aβ1-40 (Homo sapiens, UniProt P05067); assay: Thioflavin T (ThT) fluorescence assay of Aβ1-40 fibril formation; format: biochemical; details: for inhibition of Aβ1-40 fibril formation (ThT): Aβ1-40 10 µM
T1 construct: Aβ1-40 was obtained from Bachem (Bubendorf, Switzerland); purchased Bachem (Bubendorf, Switzerland)
T1 sequence (P05067 672-711 limits assumed): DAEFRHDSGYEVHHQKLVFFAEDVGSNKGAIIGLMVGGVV
Experimental: Aβ1-40 was obtained from Bachem (Bubendorf, Switzerland). To remove preformed aggregates, it was dissolved during 15–20 min at r.t. in 1% NH4OH to give a concentration of 2 mg/mL, followed by immediate lyophilisation. The Aβ1-40 peptide was then dissolved in an aqueous 1% ammonia solution to a concentration of 1 mM and then, just prior to use, was diluted to 0.2 mM with 10 mM Tris-HCl, 100 mM NaCl buffer (pH 7.4). Compounds (2a–c) were dissolved in DMSO (4.9 mM), while TTR in phosphate buffer 20 mM buffer (pH 7.4) at 1 mM concentration. ThT fluorescence was measured to evaluate the development of Aβ1-40 fibrils over time using a fluorescence plate reader (Vantastar, BMG lab-tech, Ortenberg, Germany) with standard 96-well black microliter plates. The ThT fluorescence intensity was recorded by using excitation/emission settings at 440−15 nm/480−15nm for 21 h and applying a double orbital shaking of 10 s before the first cycle. Experiments were triggered by adding Aβ1-40 achieving a final concentration of 10 μM into a mixture containing 40 μM ThT in 10 mM Tris-HCl, 100 mM NaCl buffer (pH 7.4) with and without the studied compounds (10 μM) at 25 °C, and with and without CuCl2 (10 µM). When TTR was assessed in the presence of compound 2a, the ratio between TTR and 2a was adjusted to 1:2 (TTR:2a) in order to let the compound interacting with both hydrophobic pockets. A time of 3 h of incubation was employed before adding the solution into the well. The F reduction is depicted as the intensity of experimental fluorescence plateau observed with the studied compound relative to the value obtained without the compound and is quantified as the following percentage: ((F Aβ1-40+compound − F Aβ1-40)/(F Aβ1-40)) × 100. The data of fluorescence intensity come from at least two independent experiments, where each condition has been performed in duplicate, in the case of the presence of TTR (10 µM), or triplicate, in the case of the absence of TTR (10 µM), respectively. The values are given as averaged percentage ± SEM.

[3] = target: T2, Human Plasma TTR (Homo sapiens, UniProt P02766); assay: ANS competitive binding (displacement) assay; details: TTR 8 µM, ANS 16 µM
T2 construct: purchased Merck Millipore, Molsheim, France; host or cells: human plasma
Experimental: The binding of ANS (8-anilino-1-naphthalenesulfonic acid), Sigma-Aldrich (St. Louis, MO, USA) and its displacement by the three selected compounds 2a–c were studied using Human Plasma TTR (Merck Millipore, Molsheim, France) according to the protocol previously described. Briefly, TTR (8 µM) was incubated with ANS (16 µM) at r.t. for 15 min in 96-well plates. Then, compounds 2a–c at concentrations of 100 µM were added. After 10 min, the fluorescent emission spectra (400–540 nm) were recorded exciting at 280 nm using Molecular Devices SpectraMax Gemini XPS plate reader, (San Jose, CA, USA). For compounds 2a, the IC50 was calculated and value was expressed as the mean ± SEM of the triplicate. All experiments were made in triplicate and, the fluorescence increases of ANS bound to TTR solution compared to its control without TTR, and TTR alone, in phosphate buffer, were used as a control.

[4] = UV–Vis metal binding study, Cu2+ (mole ratio method); format: physicochemical; details: for shift in UV spectrum in the presence of Cu2+ (first screening): ligand 20 μM, Cu2+ 80 µM, MeOH; for stoichiometry for the Cu2+–ligand complex (molar fraction analysis): ligand 20 µM, Cu2+ 0 to 80 µM
Experimental: (§1) The synthesized compounds were tested for their metal chelating effect through spectroscopic measurements. The UV–Vis absorbance of compounds was recorded in the absence and presence of metal ions using a UV–Vis spectrometer (a SPECTROstarNano (220–1000 nm), Ortenberg, Germany. The experiment was performed in 96-well plates and each experiment was made in triplicates. A fixed amount of investigated ligand (20 μM) solubilized in MeOH was mixed with increasing concentration of Cu^2+ (CuCl2), Fe^2+ (FeSO4) and Zn^2+ (ZnCl2) from 0 to 80 μM and incubated for 30 min at room temperature (r.t.). The absorbance change was monitored at wavelengths ranging from 220 to 700 nm. The stoichiometry of studied compounds for Cu^2+ and Fe^2+ complexes was determined by employing the mole ratio method.

[5] = UV–Vis metal binding study, Fe2+ (mole ratio method); format: physicochemical
Experimental: as §1

[6] = DPPH radical scavenging assay; format: biochemical; details: for %AA (percentage of antioxidant activity), DPPH: compound 100 µM, DPPH 60 µM in MeOH, 1 h; for EC50 / TEAC (Trolox equivalent antioxidant capacity), DPPH: mean ± SEM of three independent experiments
Experimental: The DPPH assay was carried out in a 96-microwell plate according to a previously described protocol. In brief, DPPH solution (60 µM in MeOH) was added to studied compounds or MeOH as the control. The 96-microwell plate was incubated (in the dark, at r.t. for 1 h) and the absorbance values were read at 517 nm by a SPECTROstarNano (220–1000 nm) UV–Vis spectrophotometer, Ortenberg, Germany. During the first screening, all compounds were tested ad 100 µM, then for compounds 2a–c the EC50 (effective concentration), the concentration of substrate that causes a 50% reduction in the DPPH colour, was calculated.
All experiments were made in triplicate. The percentage of the antioxidant activity (%AA) of the compounds was determined according to Equation (1):%AA = ((AbsDPPH − Abssample)/AbsDPPH) × 100(1)
AbsDPPH is the absorbance of DPPH solution, and Abssample is the absorbance of DPPH solution containing the tested compound.
Each concentration was tested in triplicate and the EC50 value was reported as the mean ± the standard error of the mean (SEM) of three independent experiments.

[7] = set-up: method as in PMID 31055242; details: literature value; cited from earlier work
[8] = set-up: method as in PMID 31055242; details: literature value; cited from earlier work; remark: listed apart in the source
[9] = Colorimetric Cu2+ chelation with pyrocatechol violet (PV); format: physicochemical; details: compound 200 µM, CuSO4 200 µM, PV 200 µM
Experimental: (§2) Due to a non-measurable UV absorbance for compounds 4a and 5c, a different protocol using pyrocatechol violet (PV) was applied. The compounds (200 µM) incubated for 10 min with CuSO4 (200 µM), after 200 µM PV was added and the plate was incubated at 25 °C for 20 min. The absorption spectra were recorded. The same protocol was used for Fe^2+ (FeSO4) in presence of ferrozine.

[10] = Colorimetric Fe2+ chelation with ferrozine; format: physicochemical; details: FeSO4, ferrozine
Experimental: as §2

## O=C(/C=C/c1ccc(O)c(O)c1)NOCc1ccccc1C(F)(F)F [Compound 2a, (E)-3-(3,4-dihydroxyphenyl)-N-((2-(trifluoromethyl)benzyl)oxy)acrylamide]
[1]
  radical scavenger / antioxidant activity, ABTS: 99.1%
  EC50: 9.9 ± 0.2 µM
  TEAC, ABTS: 11.3 ± 0.1 µM
[2]; TTR 10 µM pre-incubated with 2a 20 µM (1:2 TTR/2a), without Cu2+
  effect on Aβ1-40 fibril formation (ThT): slight positive effect
[2]; with Cu2+ 10 µM, compound 10 µM
  inhibition of Aβ1-40 fibril formation (ThT): completely inhibition of the fibril formation
[2]; without Cu2+, compound 10 µM (1:1 ratio)
  inhibition of Aβ1-40 fibril formation (ThT): discrete inhibitory activity
[3]; mean ± SEM of triplicate
  IC50: 31.9 µM
[3]; compound 100 µM
  displacement of ANS from TTR: 71%
[4]
  shift in UV spectrum in the presence of Cu2+ (first screening): significant shift
[5]; Fe2+ 0 to 30 µM, absorbance changes at 330 nm
  molar fraction of the 2a–Fe2+ complex: 1
[5]; ligand 20 μM, Fe2+ 80 µM, MeOH
  change in UV spectrum when Fe2+ was added (first screening): weak change
[6]
  %AA (percentage of antioxidant activity), DPPH: 95%
  EC50: 8.9 ± 0.2 µM
  TEAC (Trolox equivalent antioxidant capacity), DPPH: 12.4 ± 0.4 µM
other
  melting point: 80 to 82 °C

## O=C(/C=C/c1ccc(O)cc1O)NOCc1ccc(C(F)(F)F)cc1 [Compound 3c, (E)-3-(2,4-dihydroxyphenyl)-N-((4-(trifluoromethyl)benzyl)oxy)acrylamide]
[1]
  radical scavenger / antioxidant activity, ABTS: 65%
other
  melting point: 176 to 178 °C

## O=C(C=Cc1ccccc1)NOCc1ccccc1C(F)(F)F [Compound 1a, N-((2-(trifluoromethyl)benzyl)oxy)cinnamamide]
[4]
  stoichiometry for the Cu2+–ligand complex (molar fraction analysis): 1.0
  shift in UV spectrum in the presence of Cu2+ (first screening): significant shift
other
  melting point: 91 to 93 °C

## O=C(O)/C=C/c1ccc(O)c(O)c1 [caffeic acid]
[7]
  EC50: 10.9 µM
[8]
  EC50: 13.3 µM

## CCCC(CCC)C(=O)NOCc1cccc(C(F)(F)F)c1 [Compound 4b, 2-propyl-N-((3-(trifluoromethyl)benzyl)oxy)pentanamide]
other
  melting point: 74 to 76 °C

## O=C(CCCC[C@@H]1CCSS1)NOCc1ccccc1C(F)(F)F [Compound 5a, (R)-5-(1,2-dithiolan-3-yl)-N-((2-(trifluoromethyl)benzyl)oxy)pentanamide]
[9]
  interaction with Cu2+, colorimetric method with PV: slight shift
[10]
  interaction with Fe2+, colorimetric method with ferrozine: No interaction

## O=C(/C=C/c1ccc(O)cc1O)NOCc1ccccc1C(F)(F)F [Compound 3a, (E)-3-(2,4-dihydroxyphenyl)-N-((2-(trifluoromethyl)benzyl)oxy)acrylamide]
[1]
  radical scavenger / antioxidant activity, ABTS: 68%
[4]
  stoichiometry for the Cu2+–ligand complex (molar fraction analysis): around 2
  shift in UV spectrum in the presence of Cu2+ (first screening): significant shift
[6]
  %AA (percentage of antioxidant activity), DPPH: 59%
other
  melting point: 165 to 167 °C

## O=C(/C=C/c1ccc(O)cc1O)NOCc1cccc(C(F)(F)F)c1 [Compound 3b, (E)-3-(2,4-dihydroxyphenyl)-N-((3-(trifluoromethyl)benzyl)oxy)acrylamide]
[1]
  radical scavenger / antioxidant activity, ABTS: 67%
[6]
  %AA (percentage of antioxidant activity), DPPH: 60%
other
  melting point: 157 to 158 °C

## CCCC(CCC)C(=O)NOCc1ccccc1C(F)(F)F [Compound 4a, 2-propyl-N-((2-(trifluoromethyl)benzyl)oxy)pentanamide]
[9]
  interaction with Cu2+, colorimetric method with PV: slight shift
[10]
  interaction with Fe2+, colorimetric method with ferrozine: No interaction
other
  melting point: 73 to 75 °C

## CCCC(CCC)C(=O)NOCc1ccc(C(F)(F)F)cc1 [Compound 4c, 2-propyl-N-((4-(trifluoromethyl)benzyl)oxy)pentanamide]
other
  melting point: 78 to 80 °C

## O=C(/C=C/c1ccc(O)c(O)c1)NOCc1ccc(C(F)(F)F)cc1 [Compound 2c]
[1]
  radical scavenger / antioxidant activity, ABTS: 97.3%
  EC50: 22.9 ± 0.5 µM
  TEAC, ABTS: 11.8 ± 0.02 µM
[6]
  %AA (percentage of antioxidant activity), DPPH: 96% and 58%
  EC50: 6 ± 0.1 µM
  TEAC (Trolox equivalent antioxidant capacity), DPPH: 10.4 ± 0.4 µM
other
  melting point: 188 to 190 °C

## O=C(C=Cc1ccccc1)NOCc1cccc(C(F)(F)F)c1 [Compound 1b, N-((3-(trifluoromethyl)benzyl)oxy)cinnamamide]
other
  melting point: 91 to 93 °C

## O=C(C=Cc1ccccc1)NOCc1ccc(C(F)(F)F)cc1 [Compound 1c, N-((4(trifluoromethyl)benzyl)oxy)cinnamamide]
other
  melting point: 148 to 150 °C
